Assay results: patent EP1137645B1, “ALPHA-METHYLBENZYL-CONTAINING THIOUREA INHIBITORS OF HERPES VIRUSES CONTAINING A […] GROUP” (Wyeth, priority 1998, dated 2000)
Converted amounts (≈) assume the structure as drawn. Read-outs that look alike come from different tables or passages of the source.

Legend:
[1] = tested on: HCMV recombinant mutant virus whose genome contains the prokaryotic beta-glucuronidase gene; test: microbe, parasite or virus in culture; format: cell-based, human cytomegalovirus; settings: Human betaherpesvirus 5, Fibroblast
Outline: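 Antiviral IC50 estimated from reduced reporter activity across compound amounts: lysates prepared 96 h after infection were tested with p-nitrophenyl- or methylumbelliferyl-glucuronide. Cells were human foreskin fibroblasts, infected alongside inhibitor with HCMV (e.g. RV145) expressing viral promoter-driven beta-glucuronidase.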

VZV strain Ellen = test: VZV antiviral (ELISA) assay; format: cell-based; settings: for inhibition at 10 µg/mL: read-out: % inhibition 10 ug/ml VZV
Outline: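 HFF cells infected with VZV Ellen at multiplicity below 0.1 overnight, then mixed infected/uninfected cells seeded with compound in DMEM/2% FBS and incubated three days at 37°C, 5% CO2.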

HSV- I = test: HSV antiviral (ELISA) assay; format: cell-based; settings: read-out: IC50 (ug/ml) HSV
Outline: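 IC50 from fluorescence versus untreated control in a cell ELISA: anti-glycoprotein D antibody, β-galactosidase-conjugated secondary, 4-methyl umbelliferone read at 365/450 nm. Vero cells (2% FBS DMEM) received compound 30 min pre-infection with HSV-1 at MOI 0.006, fixed ~24 h post-infection.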

[2] = read-out: IC50 ug/ml HCMV, HCMV, human foreskin fibroblasts
[3] = Human alphaherpesvirus 3, HFF, read-out: IC50 (ug/ml) VZV, VZV strain Ellen, HFF cells, ELISA
[4] = Human alphaherpesvirus 3, VZV strain Ellen, HFF cells, ELISA, read-out: IC50 (ug/ml) VZV
[5] = Human alphaherpesvirus 3, HFF, read-out: IC50 (ug/ml) VZV

| Compound | IC50 [1, 2] | IC50 (VZV strain Ellen; [3]) | IC50 (HSV- I; Vero) | IC50 ([1]; read-out: IC50 ug/ml HCMV) | IC50 (VZV strain Ellen; [4]) | IC50 (HSV- I; HSV- I, Vero cells, ELISA) | inhibition at 10 µg/mL (VZV strain Ellen; Human alphaherpesvirus 3, HFF) | IC50 (VZV strain Ellen; [5]) |
| --- | --- | --- | --- | --- | --- | --- | --- | --- |
| CC(NC(=S)Nc1ccc(NC(=O)c2ccccc2F)cc1)c1ccccc1Br (stereo not shown) [Example 783, N-(4-{3-[1-(2-Bromo-phenyl)-ethyl]-thioureido}-phenyl)-2-fluoro-benzamide] | 1.1 µg/mL (≈ 2.33 µM) | 0.3 µg/mL (≈ 0.635 µM) | > 10 µg/mL |  |  |  |  |  |
| CC(NC(=S)Nc1ccc(NC(=O)c2ccccc2F)cc1)c1ccccc1Cl (stereo not shown) [Example 784, N-(4-{3-[1-(2-Chloro-phenyl)-ethyl]-thioureido}-phenyl)-2-fluoro-benzamide] | 1.1 µg/mL (≈ 2.57 µM) | 0.7 µg/mL (≈ 1.64 µM) | > 10 µg/mL |  |  |  |  |  |
| CC(NC(=S)Nc1ccc(NC(=O)c2ccccc2F)cc1)c1ccccc1C(F)(F)F (stereo not shown) [Example 785, 2-Fluoro-N-(4-{3-[1-(2-trifluoromethyl-phenyl)-ethyl]-thioureido}-phenyl)-benzamide] |  |  |  | > 2.2 µg/mL | > 7.5 µg/mL | > 10 µg/mL |  |  |
| CC(NC(=S)Nc1ccc(NC(=O)c2ccccc2F)cc1)c1cccc(C(F)(F)F)c1 (stereo not shown) [Example 786, 2-Fluoro-N-(4-{3-[1-(3-trifluoromethyl-phenyl)-ethyl]-thioureido}-phenyl)-benzamide] |  |  |  | 1.5 µg/mL (≈ 3.25 µM) | > 7.5 µg/mL | > 10 µg/mL |  |  |
| CC(NC(=S)Nc1ccc(NC(=O)c2ccccc2F)cc1)c1ccc(C(F)(F)F)cc1 (stereo not shown) [Example 787, 2-Fluoro-N-(4-{3-[1-(4-trifluoromethyl-phenyl)-ethyl]-thioureido}-phenyl)-benzamide] |  |  |  | 1.2 µg/mL (≈ 2.6 µM) | > 7.5 µg/mL | > 10 µg/mL |  |  |
| COc1ccccc1C(C)NC(=S)Nc1ccc(NC(=O)c2ccccc2F)cc1 (stereo not shown) [Example 788, 2-Fluoro-N-(4-{3-[1-(2-methoxy-phenyl)-ethyl]-thioureido}-phenyl)-benzamide] | 1.8 µg/mL (≈ 4.25 µM) | > 7.5 µg/mL | > 10 µg/mL |  |  |  |  |  |
| COc1cccc(C(C)NC(=S)Nc2ccc(NC(=O)c3ccccc3F)cc2)c1 (stereo not shown) [Example 789, 2-Fluoro-N-(4-{3-[1-(3-methoxy-phenyl)-ethyl]-thioureido}-phenyl)-benzamide] | > 2.2 µg/mL | 1.5 µg/mL (≈ 3.54 µM) | > 10 µg/mL |  |  |  |  |  |
| CC(C)C(NC(=S)Nc1ccc(NC(=O)c2ccccc2F)cc1)c1ccc(F)cc1 (stereo not shown) [Example 790, 2-Fluoro-N-(4-{3-[1-(4-fluoro-phenyl)-2-methyl-propyl]-thioureido}-phenyl)-benzamide] | 1.5 µg/mL (≈ 3.41 µM) | 2.5 µg/mL (≈ 5.69 µM) | > 10 µg/mL |  |  |  |  |  |
| CC(NC(=S)Nc1ccc(NC(=O)c2ccccc2F)cc1)c1cccc(C#N)c1 (stereo not shown) [Example 791, N-(4-{3-[1-(3-Cyano-phenyl)-ethyl]-thioureido}-phenyl)-2-fluoro-benzamide] |  |  |  | 7.3 µg/mL (≈ 17.4 µM) | 7 µg/mL (≈ 16.7 µM) | > 10 µg/mL |  |  |
| CC(NC(=S)Nc1ccc(NC(=O)c2ccccc2F)cc1)c1ccc(C#N)cc1 (stereo not shown) [Example 792, N-(4-{3-[1-(4-Cyano-phenyl)-ethyl]-thioureido}-phenyl)-2-fluoro-benzamide] |  |  |  | 5 µg/mL (≈ 11.9 µM) | > 7.5 µg/mL | > 10 µg/mL |  |  |
| CC(NC(=S)Nc1ccc(NC(=O)c2ccccc2F)cc1)c1ccc(N(C)C)cc1 (stereo not shown) [Example 793, N-(4-{3-[1-(4-Dimethylamino-phenyl)-ethyl]-thioureido}-phenyl)-2-fluoro-benzamide] | 3.2 µg/mL (≈ 7.33 µM) | 3.1 µg/mL (≈ 7.1 µM) | 9 µg/mL (≈ 20.6 µM) |  |  |  |  |  |
| CC(NC(=S)Nc1ccc(NC(=O)c2ccccc2F)cc1)c1cccc(N(C)C)c1 (stereo not shown) [Example 794, N-(4-{3-[1-(3-Dimethylamino-phenyl)-ethyl]-thioureido}-phenyl)-2-fluoro-benzamide] | 6.2 µg/mL (≈ 14.2 µM) | 0.4 µg/mL (≈ 0.916 µM) | 7 µg/mL (≈ 16 µM) |  |  |  |  |  |
| CC(NC(=S)Nc1ccc(NC(=O)c2ccccc2Br)cc1)c1ccc(F)cc1 (stereo not shown) [Example 795, 2-Bromo-N-(4-{3-[1-(4-fluoro-phenyl)-ethyl]-thioureido}-pbenyl)-benzamide] | 4.1 µg/mL (≈ 8.68 µM) | > 7.5 µg/mL | 8.6 µg/mL (≈ 18.2 µM) |  |  |  |  |  |
| O=C(Nc1ccc(NC(=S)NC(CO)c2ccccc2)cc1)c1ccccc1F (stereo not shown) [Example 797, 2-Fluoro-N-{4-[3-(2-hydroxy-1-phenyl-ethyl)-thioureido]-phenyl}-benzamide] |  |  |  | > 10 µg/mL | 1.7 µg/mL (≈ 4.15 µM) | > 10 µg/mL |  |  |
| CC(NC(=S)Nc1ccc(NC(=O)c2ccccc2F)cc1)c1ccc2ccccc2c1 (stereo not shown) [Example 799, 2-Fluoro-N-{4-[3-(1-naphthalen-2-yl-ethyl)-thioureido]-phenyl}-benzamide] | 1.7 µg/mL (≈ 3.83 µM) | > 7.5 µg/mL | > 10 µg/mL |  |  |  |  |  |
| CC(NC(=S)Nc1ccc(NC(=O)c2cccc(F)c2)cc1)c1ccc(F)cc1 (stereo not shown) [Example 800, 3-Fluoro-N-(4-{3-[1-(4-fluoro-phenyl)-ethyl]-thioureido}-phenyl)-benzamide] |  |  |  | > 10 µg/mL | > 7.5 µg/mL | > 10 µg/mL |  |  |
| CC(NC(=S)Nc1ccc(NC(=O)c2ccc(F)cc2)cc1)c1ccc(F)cc1 (stereo not shown) [Example 801, 4-Fluoro-N-(4-{3-[1-(4-fluoro-phenyl)-ethyl]-thioureido}-phenyl)-benzamide] |  |  |  | > 10 µg/mL | > 7.5 µg/mL | > 10 µg/mL |  |  |
| CCOc1ccc(NC(=S)Nc2ccc(NC(=O)c3ccccc3F)cc2)cc1Cl [Example 806, N-{4-[3-(3-Chloro-4-ethoxy-phenyl)-thioureido]-phenyl}-2-fluoro-benzamide] | > 10 µg/mL | > 7.5 µg/mL | > 10 µg/mL |  |  |  |  |  |
| CCCOc1ccc(NC(=S)Nc2ccc(NC(=O)c3ccccc3F)cc2)cc1Cl [Example 807, N-{4-[3-(3-Chloro-4-propoxy-phenyl)-thioureido]-phenyl}-2-fluoro-benzamide] | 10 µg/mL (≈ 21.8 µM) | 0.9 µg/mL (≈ 1.97 µM) | > 10 µg/mL |  |  |  |  |  |
| CC(C)Oc1ccc(NC(=S)Nc2ccc(NC(=O)c3ccccc3F)cc2)cc1Cl [Example 808, N-{4-[3-(3-Chloro-4-isopropoxy-phenyl)-thioureido]-phenyl}-2-fluoro-benzamide] | > 10 µg/mL | > 7.5 µg/mL | > 10 µg/mL |  |  |  |  |  |
| CCCCOc1ccc(NC(=S)Nc2ccc(NC(=O)c3ccccc3F)cc2)cc1Cl [Example 809, N-{4-[3-(4-Butoxy-3-chloro-phenyl)-thioureido]-phenyl}-2-fluoro-benzamide] | > 10 µg/mL | > 7.5 µg/mL | > 10 µg/mL |  |  |  |  |  |
| COc1ccc(NC(=S)Nc2ccc(NC(=O)c3ccccc3F)cc2)cc1I [Example 810, 2-Fluoro-N-{4-[3-(3-iodo-4-methoxy-phenyl)-thioureido]-phenyl}-benzamide] |  |  |  | 2.7 µg/mL (≈ 5.18 µM) | > 7.5 µg/mL | 1.1 µg/mL (≈ 2.11 µM) |  |  |
| COc1ccc(NC(=S)Nc2ccc(NC(=O)c3ccccc3F)cc2)cc1Br [Example 811, N-{4-[3-(3-Bromo-4-methoxy-phenyl)-thioureido]-phenyl}-2-fluoro-benzamide] | 3.1 µg/mL (≈ 6.54 µM) | > 7.5 µg/mL | 0.8 µg/mL (≈ 1.69 µM) |  |  |  |  |  |
| COc1ccc(NC(=S)Nc2ccc(NC(=O)c3ccccc3)cc2)cc1Cl [Example 817, N-{4-[3-(3-Chloro-4-methoxy-phenyl)-thioureido]-phenyl}-benzamide] | 2 µg/mL (≈ 4.86 µM) |  |  |  |  | 1 µg/mL (≈ 2.43 µM) | 66% | 12 µg/mL (≈ 29.1 µM) |
| COc1ccc(NC(=S)Nc2ccc(NC(=O)c3ccccc3OC)cc2)cc1Cl [Example 818, N-{4-[3-(3-Chloro-4-methoxy-phenyl)-thioureido]-phenyl}-2-methoxy-benzamide] | 4 µg/mL (≈ 9.05 µM) |  |  |  |  | 1.2 µg/mL (≈ 2.72 µM) | 32% | > 10 µg/mL |
| COc1cccc(C(=O)Nc2ccc(NC(=S)Nc3ccc(OC)c(Cl)c3)cc2)c1 [Example 819, N-{4-[3-(3-Chloro-4-methoxy-phenyl)-thioureido]-phenyl}-3-methoxy-benzamide] | 4 µg/mL (≈ 9.05 µM) |  |  |  |  | 6 µg/mL (≈ 13.6 µM) | 93% | 2.5 µg/mL (≈ 5.66 µM) |
| COc1ccc(C(=O)Nc2ccc(NC(=S)Nc3ccc(OC)c(Cl)c3)cc2)cc1 [Example 820, N-{4-[3-(3-Chloro-4-methoxy-phenyl)-thioureido]-phenyl}-4-methoxy-benzamide] | 8 µg/mL (≈ 18.1 µM) |  |  |  |  | 4 µg/mL (≈ 9.05 µM) | 20% | > 10 µg/mL |
